Tests used:
Assay in all cases: cells
BCPAP = assay type: functional, cell-based; conditions: Homo sapiens;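 also: growth inhibition of BCPAP cells, read out in a cell viability assay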
Description: SANGER: Inhibition of human BCPAP cell growth in a cell viability assay.

SNU-449 = assay type: functional, cell-based; conditions: Homo sapiens
Description: SANGER: Inhibition of human SNU-449 cell growth in a cell viability assay.

A-427 = assay type: functional, cell-based; conditions: Homo sapiens;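 also: growth inhibition of human A-427 cells, read out by a cell viability assay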
Description: SANGER: Inhibition of human A427 cell growth in a cell viability assay.

A2058 = assay type: functional, cell-based; conditions: Homo sapiens;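 also: reduction of A2058 cell growth, read out with a viability assay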
Description: SANGER: Inhibition of human A2058 cell growth in a cell viability assay.

RT-112 = assay type: functional, cell-based; conditions: Homo sapiens
Description: SANGER: Inhibition of human RT-112 cell growth in a cell viability assay.

T47D = assay type: functional, cell-based; conditions: Homo sapiens;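 also: growth inhibition of human T47D cells, measured with a cell viability assay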
Description: SANGER: Inhibition of human T47D cell growth in a cell viability assay.

DU-145 = assay type: functional, cell-based; conditions: Homo sapiens
Description: SANGER: Inhibition of human DU-145 cell growth in a cell viability assay.

Calu-3 = assay type: functional, cell-based; conditions: Homo sapiens;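 also: growth inhibition of human Calu-3 cells, determined with a cell viability assay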
Description: SANGER: Inhibition of human Calu-3 cell growth in a cell viability assay.

ASPC1 = assay type: functional, cell-based; conditions: Homo sapiens;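 also: growth inhibition of AsPC-1 cells, read out with a cell viability assay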
Description: SANGER: Inhibition of human AsPC-1 cell growth in a cell viability assay.

RMG-I = assay type: functional, cell-based; conditions: Homo sapiens;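 also: growth inhibition of human RMG-I cells, read out with a cell viability assay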
Description: SANGER: Inhibition of human RMG-I cell growth in a cell viability assay.

MDA-MB-231 = assay type: functional, cell-based; conditions: Homo sapiens
Description: SANGER: Inhibition of human MDA-MB-231 cell growth in a cell viability assay.

CP66-MEL = assay type: functional, cell-based; conditions: Homo sapiens;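 also: growth inhibition of CP66-MEL cells determined in a cell viability assay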
Description: SANGER: Inhibition of human CP66-MEL cell growth in a cell viability assay.

OE33 = assay type: functional, cell-based; conditions: Homo sapiens;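 also: growth inhibition of human OE33 cells, measured by a cell viability assay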
Description: SANGER: Inhibition of human OE33 cell growth in a cell viability assay.

SF-295 = assay type: functional, cell-based; conditions: Homo sapiens;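 also: growth inhibition of SF-295 cells, read out with a cell viability assay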
Description: SANGER: Inhibition of human SF295 cell growth in a cell viability assay.

NCI-H2405 = assay type: functional, cell-based; conditions: Homo sapiens;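 also: growth inhibition of the human cell line, read out with a cell viability assay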
Description: SANGER: Inhibition of human NCI-H2405 cell growth in a cell viability assay.

T-24 = assay type: functional, cell-based; conditions: Homo sapiens;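 also: growth inhibition of T-24 cells, read out with a cell viability assay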
Description: SANGER: Inhibition of human T-24 cell growth in a cell viability assay.

PFSK-1 = assay type: functional, cell-based; conditions: Homo sapiens;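 also: cell viability assay measuring how strongly compounds suppress growth of human PFSK-1 cells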
Description: SANGER: Inhibition of human PFSK-1 cell growth in a cell viability assay.

BHT-101 = assay type: functional, cell-based; conditions: Homo sapiens
Description: SANGER: Inhibition of human BHT-101 cell growth in a cell viability assay.

HCC1937 = assay type: functional, cell-based; conditions: Homo sapiens;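 also: growth inhibition measured with a cell viability read-out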
Description: SANGER: Inhibition of human HCC1937 cell growth in a cell viability assay.

MKN-7 = assay type: functional, cell-based; conditions: Homo sapiens;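 also: growth inhibition of MKN-7 cells, read out with a cell viability assay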
Description: SANGER: Inhibition of human MKN7 cell growth in a cell viability assay.

WM-115 = assay type: functional, cell-based; conditions: Homo sapiens
Description: SANGER: Inhibition of human WM-115 cell growth in a cell viability assay.

COR-L105 = assay type: functional, cell-based; conditions: Homo sapiens;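 also: cell growth inhibition determined with a viability assay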
Description: SANGER: Inhibition of human COR-L105 cell growth in a cell viability assay.

C3A = assay type: functional, cell-based; conditions: Homo sapiens;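 also: growth inhibition of C3A human cells, quantified with a cell viability readout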
Description: SANGER: Inhibition of human C3A cell growth in a cell viability assay.

NB12 = assay type: functional, cell-based; conditions: Homo sapiens;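 also: growth inhibition of human NB12 cells, read out by a cell viability assay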
Description: SANGER: Inhibition of human NB12 cell growth in a cell viability assay.

HCT-116 = assay type: functional, cell-based; conditions: Homo sapiens
Description: SANGER: Inhibition of human HCT-116 cell growth in a cell viability assay.

M14 = assay type: functional, cell-based; conditions: Homo sapiens;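 also: growth inhibition of M14 cells, read out with a cell viability assay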
Description: SANGER: Inhibition of human M14 cell growth in a cell viability assay.

NCI-H1792 = assay type: functional, cell-based; conditions: Homo sapiens;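 also: growth inhibition of human NCI-H1792 cells, read out as cell viability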
Description: SANGER: Inhibition of human NCI-H1792 cell growth in a cell viability assay.

KYSE-520 cell line = assay type: functional, cell-based; conditions: Homo sapiens;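 also: growth inhibition of human KYSE-520 cells, read out with a viability assay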
Description: SANGER: Inhibition of human KYSE-520 cell growth in a cell viability assay.

CAL-62 = assay type: functional, cell-based; conditions: Homo sapiens;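 also: growth inhibition of CAL-62 cells, read out with a cell viability assay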
Description: SANGER: Inhibition of human CAL-62 cell growth in a cell viability assay.

COLO-679 = assay type: functional, cell-based; conditions: Homo sapiens
Description: SANGER: Inhibition of human COLO-679 cell growth in a cell viability assay.

CAKI-1 = assay type: functional, cell-based; conditions: Homo sapiens;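 also: growth inhibition of CAKI-1 cells, measured by a cell viability assay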
Description: SANGER: Inhibition of human CAKI-1 cell growth in a cell viability assay.

CAL-27 = assay type: functional, cell-based; conditions: Homo sapiens;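 also: Viability-based readout, IC50 reflecting inhibition of CAL-27 cell growth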
Description: SANGER: Inhibition of human CAL-27 cell growth in a cell viability assay.

KYSE-410 = assay type: functional, cell-based; conditions: Homo sapiens;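 also: growth inhibition of KYSE-410 cells, measured through a cell viability readout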
Description: SANGER: Inhibition of human KYSE-410 cell growth in a cell viability assay.

MC-IXC = assay type: functional, cell-based; conditions: Homo sapiens;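 also: growth inhibition of MC-IXC cells, read out with a cell viability assay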
Description: SANGER: Inhibition of human MC-IXC cell growth in a cell viability assay.

COLO-741 = assay type: functional, cell-based; conditions: Homo sapiens
Description: SANGER: Inhibition of human COLO-741 cell growth in a cell viability assay.

NB17 = assay type: functional, cell-based, Homo sapiens; conditions: Homo sapiens, NB17;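 also: growth inhibition of NB17 cells, read out with a cell viability assay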
Description: SANGER: Inhibition of human NB17 cell growth in a cell viability assay.

OAW-42 = assay type: functional, cell-based; conditions: Homo sapiens;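 also: growth inhibition of OAW-42 cells, read out with a cell viability assay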
Description: SANGER: Inhibition of human OAW-42 cell growth in a cell viability assay.

OVCAR-8 = assay type: functional, cell-based; conditions: Homo sapiens;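 also: growth inhibition of human OVCAR-8 cells, read out by a cell viability assay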
Description: SANGER: Inhibition of human OVCAR-8 cell growth in a cell viability assay.

HuP-T4 = assay type: functional, cell-based; conditions: Homo sapiens;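 also: cell viability assay measuring how much HuP-T4 cell growth is inhibited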
Description: SANGER: Inhibition of human HuP-T4 cell growth in a cell viability assay.

MDA-MB-175-VII = assay type: functional, cell-based; conditions: Homo sapiens
PANC-03-27 = assay type: functional, cell-based; conditions: Homo sapiens
Description: SANGER: Inhibition of human PANC-03-27 cell growth in a cell viability assay.

HO-1-N-1 = assay type: functional, cell-based; conditions: Homo sapiens;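 also: growth inhibition of human HO-1-N-1 cells, read out with a cell viability assay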
Description: SANGER: Inhibition of human HO-1-N-1 cell growth in a cell viability assay.

8305C = assay type: functional, cell-based; conditions: Homo sapiens
Description: SANGER: Inhibition of human 8305C cell growth in a cell viability assay.

PA-1 = assay type: functional, cell-based; conditions: Homo sapiens;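 also: IC50 for suppression of PA-1 cell proliferation, determined with a cell viability read-out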
Description: SANGER: Inhibition of human PA-1 cell growth in a cell viability assay.

NCI-H1417 = assay type: functional, cell-based, Homo sapiens; conditions: Homo sapiens, NCI-H1417;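 also: human NCI-H1417 cells, growth inhibition determined with a cell viability readout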
Description: SANGER: Inhibition of human NCI-H1417 cell growth in a cell viability assay.

MONO-MAC-6 = assay type: functional, cell-based, Homo sapiens; conditions: Homo sapiens, MONO-MAC-6;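 also: cell viability assay measuring growth inhibition of human MONO-MAC-6 cells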
Description: SANGER: Inhibition of human MONO-MAC-6 cell growth in a cell viability assay.

EHEB = assay type: functional, cell-based; conditions: Homo sapiens;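 also: growth inhibition of human EHEB cells, read out with a cell viability assay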
Description: SANGER: Inhibition of human EHEB cell growth in a cell viability assay.

MC-CAR = assay type: functional, cell-based, Homo sapiens; conditions: Homo sapiens, MC-CAR;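 also: growth inhibition of the human MC-CAR cell line, read out by a cell viability assay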
Description: SANGER: Inhibition of human MC-CAR cell growth in a cell viability assay.

NCI-H719 = assay type: functional, cell-based, Homo sapiens; conditions: Homo sapiens, NCI-H719;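 also: growth inhibition of the cultured cell line, read out with a viability assay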
Description: SANGER: Inhibition of human NCI-H719 cell growth in a cell viability assay.

ARH-77 = assay type: functional, cell-based, Homo sapiens; conditions: Homo sapiens, ARH-77;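 also: growth inhibition of ARH-77 cells, read out by a cell viability assay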
Description: SANGER: Inhibition of human ARH-77 cell growth in a cell viability assay.

SCLC-21H = assay type: functional, cell-based, Homo sapiens; conditions: Homo sapiens, SCLC-21H;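 also: growth inhibition of cultured human SCLC-21H cells, read out with a cell viability assay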
Description: SANGER: Inhibition of human SCLC-21H cell growth in a cell viability assay.

NALM-6 = assay type: functional, cell-based, Homo sapiens; conditions: Homo sapiens, NALM-6;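 also: growth inhibition of NALM-6 cells, read out with a cell viability assay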
Description: SANGER: Inhibition of human NALM-6 cell growth in a cell viability assay.

EVSA-T = assay type: functional, cell-based, Homo sapiens; conditions: Homo sapiens, EVSA-T;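 also: growth inhibition of EVSA-T cells, read out with a cell viability assay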
Description: SANGER: Inhibition of human EVSA-T cell growth in a cell viability assay.

NCI-H889 = assay type: functional, cell-based, Homo sapiens; conditions: Homo sapiens, NCI-H889;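 also: cell growth inhibition of the cell line, read out with a viability assay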
Description: SANGER: Inhibition of human NCI-H889 cell growth in a cell viability assay.

NCI-H345 = assay type: functional, cell-based, Homo sapiens; conditions: Homo sapiens, NCI-H345;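 also: growth inhibition of NCI-H345 cells measured with a cell viability assay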
Description: SANGER: Inhibition of human NCI-H345 cell growth in a cell viability assay.

U-698-M = assay type: functional, cell-based, Homo sapiens; conditions: Homo sapiens, U-698-M
Description: SANGER: Inhibition of human U-698-M cell growth in a cell viability assay.

BOKU = assay type: functional, cell-based; conditions: Homo sapiens;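 also: growth inhibition of the human BOKU cell line, read out by a cell viability assay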
Description: SANGER: Inhibition of human BOKU cell growth in a cell viability assay.

NCI-H2196 = assay type: functional, cell-based, Homo sapiens; conditions: Homo sapiens, NCI-H2196; read-out: IC50;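 also: cell viability assay used as the readout of growth inhibition in NCI-H2196 cells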
Description: SANGER: Inhibition of human NCI-H2196 cell growth in a cell viability assay.

Raji = assay type: functional, cell-based, Homo sapiens; conditions: Homo sapiens, Raji;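 also: cell viability assay measuring inhibition of Raji cell growth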
Description: SANGER: Inhibition of human Raji cell growth in a cell viability assay.

NC(=O)c1ccc(N(C(N)=O)c2c(F)cccc2F)nc1-c1ccc(F)cc1F [VX-702]
IC50 (BCPAP): > 2 µM | IC50 (SNU-449): > 2 µM | IC50 (A-427): > 2 µM | IC50 (A2058): > 2 µM | IC50 (RT-112): > 2 µM | IC50 (T47D): > 2 µM | IC50 (DU-145): 0.146 µM | IC50 (Calu-3): > 2 µM | IC50 (ASPC1): > 2 µM | IC50 (RMG-I): > 2 µM | IC50 (MDA-MB-231): > 2 µM | IC50 (CP66-MEL): > 2 µM | IC50 (OE33): > 2 µM | IC50 (SF-295): > 2 µM | IC50 (NCI-H2405): > 2 µM | IC50 (T-24): > 2 µM | IC50 (PFSK-1): > 2 µM | IC50 (BHT-101): > 2 µM | IC50 (HCC1937): > 2 µM | IC50 (MKN-7): > 2 µM | IC50 (WM-115): > 2 µM | IC50 (COR-L105): > 2 µM | IC50 (C3A): > 2 µM | IC50 (NB12): > 2 µM | IC50 (HCT-116): > 2 µM | IC50 (M14): > 2 µM | IC50 (NCI-H1792): > 2 µM | IC50 (KYSE-520 cell line): > 2 µM | IC50 (CAL-62): > 2 µM | IC50 (COLO-679): > 2 µM | IC50 (CAKI-1): > 2 µM | IC50 (CAL-27): > 2 µM | IC50 (KYSE-410): > 2 µM | IC50 (MC-IXC): > 2 µM | IC50 (COLO-741): > 2 µM | IC50 (NB17): > 2 µM | IC50 (OAW-42): > 2 µM | IC50 (OVCAR-8): > 2 µM | IC50 (HuP-T4): > 2 µM | IC50 (MDA-MB-175-VII): > 2 µM | IC50 (PANC-03-27): > 2 µM | IC50 (HO-1-N-1): > 2 µM | IC50 (8305C): > 2 µM | IC50 (PA-1): > 2 µM

C=CC(=O)N1CCCC(Nc2nc(Nc3ccc(N(C)C(=O)CC)cc3)nc3[nH]cnc23)C1 (stereo unspecified)
IC50 (NCI-H1417): > 10.2 µM | IC50 (CP66-MEL): > 10.2 µM | IC50 (MONO-MAC-6): > 10.2 µM | IC50 (EHEB): > 10.2 µM | IC50 (MC-CAR): > 10.2 µM | IC50 (NCI-H719): > 10.2 µM | IC50 (ARH-77): > 10.2 µM | IC50 (SCLC-21H): > 10.2 µM | IC50 (NALM-6): > 10.2 µM | IC50 (EVSA-T): > 10.2 µM | IC50 (NCI-H889): > 10.2 µM | IC50 (NCI-H345): > 10.2 µM | IC50 (U-698-M): > 10.2 µM | IC50 (BOKU): > 10.2 µM | IC50 (NB17): > 10.2 µM | IC50 (NCI-H2196): > 10.2 µM | IC50 (Raji): > 10.2 µM

NC(=O)c1cccc(-c2cc(Nc3ccc(OC(F)(F)F)cc3)ncn2)c1
IC50 (NCI-H1417): > 1.28 µM | IC50 (CP66-MEL): > 1.28 µM | IC50 (MONO-MAC-6): > 1.28 µM | IC50 (EHEB): > 1.28 µM | IC50 (MC-CAR): > 1.28 µM | IC50 (NCI-H719): > 1.28 µM | IC50 (ARH-77): > 1.28 µM | IC50 (SCLC-21H): > 1.28 µM | IC50 (NALM-6): > 1.28 µM | IC50 (EVSA-T): > 1.28 µM | IC50 (NCI-H889): > 1.28 µM | IC50 (NCI-H345): > 1.28 µM | IC50 (U-698-M): > 1.28 µM | IC50 (BOKU): > 1.28 µM | IC50 (NB17): > 1.28 µM | IC50 (NCI-H2196): > 1.28 µM | IC50 (Raji): > 1.28 µM

NC(=O)Nc1cc(-c2cccc(F)c2)sc1C(=O)N[C@H]1CCCNC1 [AZD-7762]
IC50 (BCPAP): 1.89 µM | IC50 (SNU-449): > 2 µM | IC50 (A-427): 0.198 µM | IC50 (A2058): 0.451 µM | IC50 (RT-112): 0.499 µM | IC50 (T47D): > 2 µM | IC50 (DU-145): > 2 µM | IC50 (Calu-3): > 2 µM | IC50 (ASPC1): 0.664 µM | IC50 (RMG-I): 1.91 µM | IC50 (MDA-MB-231): 1.6 µM | IC50 (CP66-MEL): > 2 µM | IC50 (OE33): 0.391 µM | IC50 (SF-295): 0.298 µM | IC50 (NCI-H2405): > 2 µM | IC50 (T-24): 0.37 µM | IC50 (PFSK-1): 0.411 µM | IC50 (BHT-101): 1.15 µM | IC50 (HCC1937): 0.706 µM | IC50 (MKN-7): 1.21 µM | IC50 (WM-115): > 2 µM | IC50 (COR-L105): 0.222 µM | IC50 (C3A): > 2 µM | IC50 (NB12): > 2 µM | IC50 (HCT-116): 1.42 µM | IC50 (M14): 0.145 µM | IC50 (NCI-H1792): 0.942 µM | IC50 (KYSE-520 cell line): 0.826 µM | IC50 (CAL-62): 0.571 µM | IC50 (COLO-679): 0.0909 µM | IC50 (CAKI-1): 0.287 µM | IC50 (CAL-27): > 2 µM | IC50 (KYSE-410): 1.04 µM | IC50 (MC-IXC): 0.128 µM | IC50 (COLO-741): > 2 µM | IC50 (NB17): 0.158 µM | IC50 (OAW-42): 0.937 µM | IC50 (OVCAR-8): 0.356 µM | IC50 (HuP-T4): 0.469 µM | IC50 (MDA-MB-175-VII): > 2 µM | IC50 (PANC-03-27): 0.143 µM | IC50 (HO-1-N-1): 1.14 µM | IC50 (8305C): 0.789 µM | IC50 (PA-1): 0.75 µM

CC1=C(/C=C/C(C)=C/C=C/C(C)=C/C(=O)O)C(C)(C)CCC1 [TRETINOIN]
IC50 (BCPAP): > 10 µM | IC50 (SNU-449): > 10 µM | IC50 (A-427): > 10 µM | IC50 (A2058): > 10 µM | IC50 (RT-112): > 10 µM | IC50 (T47D): > 10 µM | IC50 (DU-145): > 10 µM | IC50 (Calu-3): > 10 µM | IC50 (ASPC1): > 10 µM | IC50 (RMG-I): > 10 µM | IC50 (MDA-MB-231): > 10 µM | IC50 (CP66-MEL): > 10 µM | IC50 (OE33): > 10 µM | IC50 (SF-295): > 10 µM | IC50 (NCI-H2405): > 10 µM | IC50 (T-24): > 10 µM | IC50 (PFSK-1): > 10 µM | IC50 (BHT-101): > 10 µM | IC50 (HCC1937): > 10 µM | IC50 (MKN-7): > 10 µM | IC50 (WM-115): > 10 µM | IC50 (COR-L105): > 10 µM | IC50 (C3A): > 10 µM | IC50 (NB12): > 10 µM | IC50 (HCT-116): > 10 µM | IC50 (M14): > 10 µM | IC50 (NCI-H1792): > 10 µM | IC50 (KYSE-520 cell line): > 10 µM | IC50 (CAL-62): > 10 µM | IC50 (COLO-679): > 10 µM | IC50 (CAKI-1): > 10 µM | IC50 (CAL-27): > 10 µM | IC50 (KYSE-410): > 10 µM | IC50 (MC-IXC): 0.154 µM | IC50 (COLO-741): > 10 µM | IC50 (NB17): > 10 µM | IC50 (OAW-42): > 10 µM | IC50 (OVCAR-8): > 10 µM | IC50 (HuP-T4): > 10 µM | IC50 (MDA-MB-175-VII): > 10 µM | IC50 (PANC-03-27): > 10 µM | IC50 (HO-1-N-1): > 10 µM | IC50 (8305C): > 10 µM | IC50 (PA-1): > 10 µM

Reference: ChEMBL document CHEMBL1201861, “Genomics of Drug Sensitity in Cancer screening data, Wellcome Trust Sanger Institute”
